The record followed here is patent US6566399B2, “Inhibitor of replicative senescence of human keratinocytes containing retinoic acid as active ingredients” (priority 2000, dated 2003).

Series [1] relates to p16^INK4A protein in NHOK. The series is described as follows: p16^INK4A protein level in NHOK by Western blot. The conditions noted are these: 1 nM, at any given PDL number. It counts as cell-based, human. The method, then:
(§1) To investigate the expression levels of pRb and p16^INK4A proteins in NHOK and NHEK that are exposed to all trans retinoic acid, Western blot analysis (Min B. -M. et al., Int. J. Oncol., 1995, 7, 249-256) was performed using anti-mouse Rb (IFB) monoclonal antibody and anti-human p16 (C-20) polyclonal antibody (Santa Cruz Biotechnology). After probing with each of the respective antibodies, the membrane was stained with 1X Ponceau S stain for 10 minutes to reveal the total protein loading per lane.
(A western blot detects proteins with antibodies after separation by electrophoresis.)

Series [2] relates to normal human epidermal keratinocytes (NHEK). The series is described as follows: NHEK proliferation rate with all-trans retinoic acid (viable cell count by trypan blue exclusion). Format: cell-based. The procedure: NHEK was prepared in the same manner as in the above example 1, except that tissue samples were taken from human foreskin tissue specimens of two healthy volunteers (ages ranged from 1 to 3 years).
To determine the effect of all-trans retinoic acid on cell proliferation, rapidly proliferating NHEK (PDL 11) were plated at 2×10^4 cell per well in a 24-well plate and cultured until their cell density reached 40% (24 hours after the plating). The cultured cells were exposed to all-trans retinoic acid containing various concentrations, 1 nM, 10 nM, 100 nM, 500 nM, 1 μM, and 5 μM and harvested after 2 or 4 days of incubation to count the number of viable cells by trypan blue exclusion. The average number and standard deviation was calculated as above same procedure (FIG. 1b).

The next series relates to NHOK. The series is described as follows: Mitotic capacity of NHOK through continuous subculture (PDL, SA-β-gal). The conditions noted are these: 1 nM. Format: cell-based, human. The method, then: (§2) At the end of each stage, the population doubling level of NHOK was calculated by the following equation 1: […]
(§3) Wherein, N: PDL, Cf: total cell numbers obtained from the end of a passage, Ci: total cell numbers of attached cells at seeding.
(§4) NOOK (PDL 15) showing rapid proliferation was cultured with 2×10^5 cell per 60-mm petri dish. In addition, NHEK (PDL 11) was cultured in the same manner as in the NHOK. The cells were divided into two groups, which were cultured in KGM containing vehicle (0.001% DMSO) or 1 nM all-trans retinoic acid until the cells reached 70% confluency, and then subcultured until they reached the postmitotic stage of cell proliferation. All-trans retinoic acid was used by dissolving it in DMSO and then diluting with KGM so as to have a final DMSO concentration of 0.001%. The PDL accumulated at the last stage of each subculture and the senescent cell numbers in the cultured NHOK and NHEK, that is to say, the percentage (%) of positive cells by SA-β-gal staining were determined. The cell pellet obtained after washing with 1X PBS was frozen at −70° C. for TRAP and Western blot analysis (see, FIGS. 3a, 3b, 3c, 4a, 4b, and 4c).

For series [3], the system named is telomerase activity of NHEK. The series is described as follows: Telomerase activity of NHEK by TRAP assay. Format: cell-based, human. The conditions noted are these: 1 nM. The procedure: (§5) To investigate telomerase activity of NHOK and NHEK exposed to all-trans retinoic acid, the telomerase activity was determined using a TPAP-eze telomerase detection kit (Oncor Inc.), which, is based on the TRAP assay.
(§6) More specifically, the frozen cell pellet in the above example 4 was dissolved in 200 μl of 1X CHAPS buffer (composition: 10 mM Tris-HCl pH 7.5, 1 mM MgCl2; 1 mM EDTA 0.5% 3[(3-cholamidopropyl)-dimethylammonium]-1-propanesulfonate, 10% glycerol, 5 mM β-mercaptoethanol and 0.1 mM benzamidine), incubated on ice for 30 minutes; and then centrifuged at 12,000 rpm for 30 minutes at 4° C. The separated supernatant was aliquoted and frozen on dry ice for TRAP assay.
(§7) For TRAP analysis, 2 μl of cell lysate containing 1.0 μg of cellular proteins were added to 48 μl of solution including 1X TRAP reaction buffer [composition: 20 mM Tris-HCl (pH 8.3), 1.5 mM MgCl2, 63 mM KCl 0.005% Tween 20, and 1 mM EGTA], 50 μM of each of four types of deoxynucleotide triphosphates, 0.05 μg of TS primer end-labeled with 20 μCi of [γ^32-P] ATP (3000 Ci/mmol; Amersham Corp.), 1 μl of primer mix, and Taq DNA polymerase (Perkin-Elmer) 0.4 unity. […] The PCR products were run in 12.5% nondenaturing polyacrylamide gel in 1X Tris-borate EDTA for 90 minutes at 60 W. After drying the gel, the radioactive signal was detected by autoradiography.

The test system of series [4] is telomerase activity of NHOK. The series is described as follows: Telomerase activity of NHOK by TRAP assay. Format: cell-based, human. The conditions noted are these: 1 nM. The procedure:
as §5, §6, §7

The next series relates to NHEK. Nature of the series: Mitotic capacity of NHEK through continuous subculture (PDL, SA-β-gal). Format: cell-based, human. The conditions noted are these: 1 nM. The procedure:
as §2, §3, §4

The test system of series [5] is p16^INK4A protein in NHEK. Nature of the series: p16^INK4A protein level in NHEK by Western blot. Format: cell-based, human. The conditions noted are these: 1 nM, PDL 13.6-17.1. The method, then:
as §1

The test system of another series is senescent NHOK (PDL 22). The series is described as follows: Senescence inhibition of senescent NHOK by SA-β-gal staining. Format: cell-based, human. The conditions noted are these: 1 nM, 21 days. From the text: The senescent NHOK were positively stained by β-galactosidase (Dimri G. D. et al., Proc. Nat. Acad. Sci., 1995, 92, 9363-9367). Using such properties, the inhibition against senescence of all-trans retinoic acid-treated NHOK was examined. […]
To ensure a representative count, each cell culture was divided into four equal parts and minimum two areas per each part were photographed with Olympus IMT-2 phase-contrast microscope, thus counting the cells. As the result, minimum 500 or more cells per each part were counted.
After the senescent NHOK (PDL 22) were exposed to 1, 10, or 100 nM retinoic acid for 21 days the percentage (%) of senescent cells was obtained from SA-β-gal positive cell (%) versus total cells. The average percentage (%) and standard deviation were calculated from three independent experiments.

Series [6] is described as follows: Acute oral toxicity test of rat. The conditions noted are these: Sprague-Dawley, in vivo, 1 g/kg/15 ml.
Description: To investigate the acute oral Toxicity test: Sprague-Dawley rats aged 6 weeks are used. Two rats per group were orally administered with all-trans retinoic acid and the 0.5% methyl cellulose solutions at a dose of 1 g/kg/15 ml one time. After administration, clinical symptoms, occurrence of death and the change of weight were observed. In addition, the rats were killed after administration, dissected, and celiac intestine and thoracic were examined with the unaided eye.
For series [7], the system named is normal human oral keratinocytes (NHOK). Nature of the series: NHOK proliferation rate with all-trans retinoic acid (viable cell count by trypan blue exclusion). It counts as cell-based. The procedure:
NHOK were prepared from human gingival tissue specimens (Min B. -M. et al., Int. J. Oncol., […], 7, 249-256). The tissue samples obtained from four healthy volunteers (ages ranged from 18 to 30 years) were thoroughly washed three times with calcium and magnesium-free Hanks' balanced salt solution (CMF-HBSS; GibcoBRL). In order to separate the epithelial tissue from the underlying mucosa, the tissue scruples were incubated in CMF-HBSS containing collagenase type II (1.0 mg/ml; Sigma Chemical Co.) and dispase grade II (2.4 mg/ml; Boeringer-Mannheim) for 90 min at 37° C. in 95% air and 5% carbon dioxide Primary NHOK were prepared from separated oral epithelial tissue (Min B. -M. et al., Int. J. Oncol. 1995, 7, 249-256), and cultured in keratinocyte basal medium containing 0.15 mM calcium and supplementary growth factor bullet kit (KGM; Clonetics Corp.) as described above. […]
To determine the effect of all-trans retinoic acid on cell proliferation, rapidly proliferating NHOK (PDL 18) were plated at 2×10^4 cells per well in a 24-well culture plate. […] The average number and standard deviation were calculated as the means of four independent experiments (FIG. 1a).

In another series the test system is pRb protein in NHOK. Nature of the series: pRb protein level in NHOK by Western blot. The conditions noted are these: 1 nM. Format: cell-based, human. The procedure:
as §1

Structures are written as SMILES.

With `CC1=C(/C=C/C(C)=C/C=C/C(C)=C/C(=O)O)C(C)(C)CCC1` [all-trans retinoic acid], the “intracellular p16^INK4A protein level compared to the vehicle control” value is “significantly lower” in [1] and “much lower” in series [5]. In addition, in series [2] (1 nM, among test concentrations 1 nM to 5 μM), the “cell proliferation of NHEK, best of the test concentrations” value is reported as “maximum cell proliferation”. Also, in series [2] (1 μM or higher), the “growth of NHEK” value is “restrained in their growth”. Also, in [2] (NHEK (PDL 11), 1 nM, 2 or 4 days of incubation), the “cell proliferation of NHEK compared to the vehicle control” value was “notably increased”. The “upper end of the log phase of cell proliferation (PDL)” value in the series with NHOK (serial subculture from PDL 15, vehicle: until PDL 20) was determined as 26 PDL; with NHEK (serial subculture from PDL 10.8, vehicle: until PDL 19.8) it was 24.3 PDL. Moreover, the “PDL at which cells ceased to proliferate” value in the series with NHOK (serial subculture, vehicle: PDL 22) came out at 28 PDL. Further, the telomerase activity result in series [3] (PDL 24.3 and 25.1 (replicative senescence)) is given as “hardly or almost undetected”; in series [3] (according to the increase of PDL), “maintained”; in [4] (PDL 27 and 28 (replicative senescence)), “almost undetectable”; in series [4] (at high PDL numbers), “maintained or slightly increased”. Besides, in the series with NHEK (serial subculture, vehicle: PDL 20.5), the “PDL up to which cells proliferated (no further proliferation)” value was 25.1 PDL. Besides, the “replicative senescence (SA-β-gal positive cells) compared to the vehicle control” value in the series with senescent NHOK (PDL 22) is listed as “significantly inhibited”. In series [6], the LD50 (usually the dose at which mortality reaches 50%) is greater than 2000 mg/kg. Besides, the “cell proliferation of NHOK, best of the test concentrations” value in series [7] (1 nM, among test concentrations 1 nM to 10 μM) is “maximally enhanced”. Further, in series [7] (NHOK (PDL 18), 1 or 10 nM, 2 or 4 days of incubation), the “cell proliferation of NHOK compared to the vehicle control” value is reported as “noticeably increased”. Moreover, in the series on pRb protein in NHOK (according to the increase of PDL (high PDL)), the “pRb protein level compared to the vehicle control” value is listed as “higher levels”. Further, in the series on pRb protein in NHOK (early culture at PDL 18), the “amount of pRb protein” value is on record as “extremely low”. The “pRb protein level compared to the vehicle control of corresponding PDL” value in the series on pRb protein in NHOK (low PDL) is listed as “much lower”.
